What all share (type): in vivo
The test system of experiment [1] is db/db mice. The experiment can be described thus: Serum glucose and triglycerides in db/db mice treated for 4 weeks (Example 2). The settings on record: for Serum Glucose Mean / Serum Triglycerides Mean: 4 weeks oral gavage once per day. The procedure: Male db/db mice have a defect in the receptor for the appetite-regulating protein leptin and consequently develop hyperphagia, obesity, insulin resistance, hyperglycemia, hypertriglyceridemia. Male db/db mice are an accepted animal model for Type II diabetes. The effect of a range of single daily doses of orally administered Compound BI was assessed in this model, and the efficacy of rosiglitazone alone and in combination with Compound BI was also examined.
Male C57BL/Ksola db/db mice (“db/db mice”) were obtained from Harlan (Indianapolis, Ind.) and allowed to acclimate for a minimum of one week. […] Male C57BL/6 mice of the same age were used as lean nondiabetic controls.
Body weights and blood glucose levels were measured and animals were sorted groups of 6-7 mice with equivalent mean body weights in each group. […].
• 1. Lean Control (no treatment) • 2. Vehicle • 3. Compound BI 30 mg/kg/day • 4. Compound BI 100 mg/kg/day • 5. Compound BI 150 mg/kg/day • 6. Rosiglitazone 3 mg/kg • 7. Rosiglitazone 3 mg/kg+Compound BI 30 mg/kg • 8. Rosiglitazone 3 mg/kg+Compound BI 100 mg/kg • 9. Rosiglitazone 20 mg/kg • 10. Rosiglitazone 20 mg/kg+Compound BI 30 mg/kg • 11. Rosiglitazone 20 mg/kg+Compound BI 100 mg/kg
Drug preparation: Compound BI was suspended in a vehicle comprising 1% aqueous hydroxypropylmethylcellulose, using a tissue homogenizer to minimize particle size and maximize uniformity of the suspension. Rosiglitazone was suspended in the same vehicle. Drug concentrations in the dosing suspension for each treatment group were adjusted according to body weights so that a constant volume of 0.4 ml provided appropropriate drug doses in all groups.
Drug Administration: Drugs were administered orally by gavage once per day for 28 days.
Blood sampling: For serum chemistry analysis, nonfasting blood samples (200 microliters) were obtained via the retro-orbital sinus and collected in serum separator tubes at 11 AM on days 14 and 28 after initiation of drug administration.

Experiment [2] relates to Adiponectin. Briefly: Serum adiponectin in db/db mice after two weeks (Example 4). The settings on record: for Adiponectin ± SD: db/db mice serum. An excerpt: Adiponectin is an glycoprotein secreted from white adipose tissue. Adiponectin improves insulin sensitive in other tissues, e.g. muscle and liver, and is also protective against atherosclerosis. Thiazolidinedione antidiabetic agents such as rosiglitazone or pioglitazone act largely via action at the PPAR-gamma, a nuclear receptor involved in regulation of fuel metabolism. PPAR-gamma agonists enhance adiponectin production by adipose tissue, and this may contribute to their beneficial effects in diabetes and related metabolic disorders.
• 8. Vehicle (1% hydroxypropylmethylcellulose) • 9. Compound BI 100 mg/kg • 10. Rosiglitazone (RSG) 3 mg/kg • 11. Compound BI 100 mg/kg+RSG 3 mg/kg • 12. Compound CF 100 mg/kg • 13. Compound CF 100 mg/kg+RSG 3 mg/kg • 14. Compound CT 100 mg/kg+RSG 3 mg/kg • 15. […]
After two weeks, blood samples were collected from the retro-orbital sinus and processed for serum chemistry measurements.

The test system of experiment [3] is Uncoupling Protein 1 (UCP1). The experiment can be described thus: UCP1 content of white adipose tissue by Western blot in db/db mice (Example 6). Conditions: for WAT UCP1 (relative light units): db/db mice epididymal fat pads, two weeks daily oral. An excerpt: Uncoupling Protein 1 (UCP1) is a protein that can dissipate metabolic energy when expressed in the mitochondrial membrane. It is present in brown adipose tissue (BAT; the brown color is due to a higher density of mitochondria than in white adipose tissue) in small mammals where its main function is to generate heat, but it can also serve to accelerate combustion of fatty acids. This latter function is especially important when UCP1 is expressed in tissues other than brown fat, since depots of brown fat are limited in humans Expression of UCP1 in white fat alters the functional phenotype of the tissue from fat storage to fat combustion. Transgenic mice expressing UCP1 in white adipose tissue are resistant to obesity and diabetes induced by a high fat diet. Pharmacological induction of UCP1 expression in white adipose tissue is therefore an attractive strategy for promoting weight reduction and resistance to body weight gain. […]
Treatment cohorts were given daily oral doses of vehicle, Compound BI (100 mg/kg/day), rosiglitazone (RSG; 3 mg/kg/day) or a combination of the two drugs for 2 weeks. […] Blood samples were also collected prior to sacrifice via the retro-orbital plexus, and processed and analyzed for serum glucose (AniLytics, Inc.; Gaithersburg Md.). […]
The membrane was washed 3 times in TBST at room temperature, and then incubated with a primary anti UCPI antibody (Chemicon Rabbit anti-mouse UCP-1, catalogue #AB3036) for 1 hr at RT (room temperature) in a sealed bag. […] The membrane was washed 6×7 min in TBST at room temperature, and then incubated with ECL (enhanced chemiluminescence) reagent (Amersham) for 1 min, and the relative amounts of UCP1 in tissue samples were quantified by densitometry of the images on X-ray film resulting from exposure to light from the chemiluminescence reaction, and expressed as relative light units (RLU).

Structures can show the parent of a compound that is named as a salt. Marks after values point to notes of the source that are not given here.

Consider `CN(CCOc1ccc(CC2SC(=O)NC2=O)cc1)c1ccccn1` (stereo not shown) [RSG, rosiglitazone maleate, reference compound], for which the “Serum Glucose Mean” value in experiment [1] (RSG 3 mg/kg) was found to be 382.8 mg/dL; in experiment [1] (RSG 20 mg/kg), 344.7 mg/dL. Further, the figures for the “Serum Triglycerides Mean” value in experiment [1] (RSG 3 mg/kg) and in experiment [1] (RSG 20 mg/kg) were 99.2* mg/dL and 117.3* mg/dL, respectively. For the same molecule, the “Adiponectin ± SD” value in experiment [2] (RSG 3 mg/kg alone) came to 12.3 ± 3.0 micrograms/ml. In addition, the “WAT UCP1 (relative light units)” value in experiment [3] (RSG 3 mg/kg) is 2067 ± 717 relative light units.
On to `Cc1cccc(C)c1COc1cccc(C(=O)CCC(=O)O)c1` [Compound BI, 4-(3-(2,6-Dimethylbenzyloxy)phenyl)-4-oxobutyric acid], for which the “Serum Glucose Mean” value in experiment [1] (Compound BI 30 mg/kg) is 657.8 mg/dL; in experiment [1] (Compound BI 100 mg/kg), 330.3* mg/dL; in experiment [1] (Compound BI 150 mg/kg) it was 271.7* mg/dL. The results for the “Serum Triglycerides Mean” value in experiment [1] (Compound BI 30 mg/kg), in experiment [1] (Compound BI 100 mg/kg) and in experiment [1] (Compound BI 150 mg/kg) were 281.2* mg/dL, 179.1* mg/dL and 177.7* mg/dL, respectively. For the same molecule, in experiment [1] (combination: rosiglitazone 3 mg/kg/day + Compound BI 30 mg/kg/day), the “hyperglycemia, hypertriglyceridemia and free fatty acid levels (in words)” value is “dose-dependent attenuation of hyperglycemia, hypertriglyceridemia and free fatty acid levels”. Moreover, in experiment [1] (oral once per day for 28 days), the “serum glucose (in words)” value is reported as “dose dependent reduction of serum glucose”. For the same molecule, the “Adiponectin ± SD” value in experiment [2] (compound alone 100 mg/kg) was determined as 9.3 ± 4.8 micrograms/ml. In experiment [2] (db/db mice, 100 mg/kg + RSG 3 mg/kg), the “effect on adiponectin with concurrent rosiglitazone (in words)” value is given as “strongly amplify the effect of concurrent rosiglitazone on adiponectin”. Also, the “serum adiponectin, individual agents (in words)” value in experiment [2] (db/db mice, agent alone) is given as “did not elevate serum adiponectin levels”. Moreover, the “WAT UCP1 (relative light units)” value in experiment [3] (Cpd. BI 100 mg/kg) amounted to 322 ± 94 relative light units. Moreover, the “UCP1 content of white adipose tissue (in words)” value in experiment [3] (db/db mice, 2 weeks, Compound BI 100 mg/kg/day, RSG 3 mg/kg/day, alone or combined) was “slightly the UCP1 content of elevated white adipose tissue”.

The values above are taken from patent US8338480B2, “Combination treatment of metabolic disorders” (Wellstat Therapeutics Corporation, priority 2006, dated 2012).
